Data taken from paper PMC10838953.

How the values were obtained:
PIP5K1C = PIP5K1C (Homo sapiens, UniProt O60331); assay: biochemical; conditions: read-out: %Ctrl @ 2000nM
LYN = LYN (Homo sapiens, UniProt P07948); assay: biochemical; conditions: read-out: %Ctrl @ 2000nM
CSNK1G1 = CSNK1G1 (Homo sapiens, UniProt Q9HCP0); assay: biochemical; conditions: read-out: %Ctrl @ 2000nM
ERK1 = ERK1 (Homo sapiens, UniProt P27361); assay: biochemical; conditions: read-out: %Ctrl @ 2000nM
RET(M918T) = RET(M918T) (Homo sapiens, UniProt P07949, M918T); assay: biochemical; conditions: read-out: %Ctrl @ 2000nM
ULK1 = ULK1 (Homo sapiens, UniProt O75385); assay: biochemical; conditions: read-out: %Ctrl @ 2000nM
[1] = target: RSK2(Kin.Dom.2-C-terminal) (Homo sapiens, UniProt P51812); assay: biochemical; conditions: read-out: %Ctrl @ 2000nM
TGFBR1 = TGFBR1 (Homo sapiens, UniProt P36897); assay: biochemical; conditions: read-out: %Ctrl @ 2000nM
FLT3-autoinhibited = FLT3-autoinhibited (Homo sapiens, UniProt P36888); assay: biochemical; conditions: read-out: %Ctrl @ 2000nM
ERK5 = ERK5 (Homo sapiens, UniProt Q13164); assay: biochemical; conditions: read-out: %Ctrl @ 2000nM
YANK2 = YANK2 (Homo sapiens, UniProt Q9NY57); assay: biochemical; conditions: read-out: %Ctrl @ 2000nM
SRPK1 = SRPK1 (Homo sapiens, UniProt Q96SB4); assay: biochemical; conditions: read-out: %Ctrl @ 2000nM
CSNK1A1 = CSNK1A1 (Homo sapiens, UniProt P48729); assay: biochemical; conditions: read-out: %Ctrl @ 2000nM
FYN = FYN (Homo sapiens, UniProt P06241); assay: biochemical; conditions: read-out: %Ctrl @ 2000nM
MAP4K3 = MAP4K3 (Homo sapiens, UniProt Q8IVH8); assay: biochemical; conditions: read-out: %Ctrl @ 2000nM
MEK4 = MEK4 (Homo sapiens, UniProt P45985); assay: biochemical; conditions: read-out: %Ctrl @ 2000nM
TTK = TTK (Homo sapiens, UniProt P33981); assay: biochemical; conditions: read-out: %Ctrl @ 2000nM
TRKC = TRKC (Homo sapiens, UniProt Q16288); assay: biochemical; conditions: read-out: %Ctrl @ 2000nM
MET(M1250T) = MET(M1250T) (Homo sapiens, UniProt P08581, M1250T); assay: biochemical; conditions: read-out: %Ctrl @ 2000nM
PAK4 = PAK4 (Homo sapiens, UniProt O96013); assay: biochemical; conditions: read-out: %Ctrl @ 2000nM
IRAK1 = IRAK1 (Homo sapiens, UniProt P51617); assay: biochemical; conditions: read-out: %Ctrl @ 2000nM
TAOK1 = TAOK1 (Homo sapiens, UniProt Q7L7X3); assay: biochemical; conditions: read-out: %Ctrl @ 2000nM
ACVR1B = ACVR1B (Homo sapiens, UniProt P36896); assay: biochemical; conditions: read-out: %Ctrl @ 2000nM
KIT(V559D,V654A) = KIT(V559D,V654A) (Homo sapiens, UniProt P10721, V559D/V654A); assay: biochemical; conditions: read-out: %Ctrl @ 2000nM
[2] = target: ABL1(Y253F)-phosphorylated (Homo sapiens, UniProt P00519, Y253F); assay: biochemical; conditions: read-out: %Ctrl @ 2000nM
HIPK4 = HIPK4 (Homo sapiens, UniProt Q8NE63); assay: biochemical; conditions: read-out: %Ctrl @ 2000nM
ERK3 = ERK3 (Homo sapiens, UniProt Q16659); assay: biochemical; conditions: read-out: %Ctrl @ 2000nM
AURKC = AURKC (Homo sapiens, UniProt Q9UQB9); assay: biochemical; conditions: read-out: %Ctrl @ 2000nM
[3] = target: RSK4(Kin.Dom.2-C-terminal) (Homo sapiens, UniProt Q9UK32); assay: biochemical; conditions: read-out: %Ctrl @ 2000nM
[4] = target: ABL1(H396P)-phosphorylated (Homo sapiens, UniProt P00519, H396P); assay: biochemical; conditions: read-out: %Ctrl @ 2000nM
MRCKB = MRCKB (Homo sapiens, UniProt Q9Y5S2); assay: biochemical; conditions: read-out: %Ctrl @ 2000nM
PIK3C2B = PIK3C2B (Homo sapiens, UniProt O00750); assay: biochemical; conditions: read-out: %Ctrl @ 2000nM
CASK = CASK (Homo sapiens, UniProt O14936); assay: biochemical; conditions: read-out: %Ctrl @ 2000nM
[5] = target: RPS6KA5(Kin.Dom.1-N-terminal) (Homo sapiens, UniProt O75582); assay: biochemical; conditions: read-out: %Ctrl @ 2000nM
OSR1 = OSR1 (Homo sapiens, UniProt O95747); assay: biochemical; conditions: read-out: %Ctrl @ 2000nM
CDC2L5 = CDC2L5 (Homo sapiens, UniProt Q14004); assay: biochemical; conditions: read-out: %Ctrl @ 2000nM
GRK1 = GRK1 (Homo sapiens, UniProt Q15835); assay: biochemical; conditions: read-out: %Ctrl @ 2000nM
FRK = FRK (Homo sapiens, UniProt P42685); assay: biochemical; conditions: read-out: %Ctrl @ 2000nM
SRPK2 = SRPK2 (Homo sapiens, UniProt P78362); assay: biochemical; conditions: read-out: %Ctrl @ 2000nM
ERN1 = ERN1 (Homo sapiens, UniProt O75460); assay: biochemical; conditions: read-out: %Ctrl @ 2000nM
[6] = target: ABL1(Q252H)-nonphosphorylated (Homo sapiens, UniProt P00519, Q252H); assay: biochemical; conditions: read-out: %Ctrl @ 2000nM

ERK3, sequence (Q16659 whole entry): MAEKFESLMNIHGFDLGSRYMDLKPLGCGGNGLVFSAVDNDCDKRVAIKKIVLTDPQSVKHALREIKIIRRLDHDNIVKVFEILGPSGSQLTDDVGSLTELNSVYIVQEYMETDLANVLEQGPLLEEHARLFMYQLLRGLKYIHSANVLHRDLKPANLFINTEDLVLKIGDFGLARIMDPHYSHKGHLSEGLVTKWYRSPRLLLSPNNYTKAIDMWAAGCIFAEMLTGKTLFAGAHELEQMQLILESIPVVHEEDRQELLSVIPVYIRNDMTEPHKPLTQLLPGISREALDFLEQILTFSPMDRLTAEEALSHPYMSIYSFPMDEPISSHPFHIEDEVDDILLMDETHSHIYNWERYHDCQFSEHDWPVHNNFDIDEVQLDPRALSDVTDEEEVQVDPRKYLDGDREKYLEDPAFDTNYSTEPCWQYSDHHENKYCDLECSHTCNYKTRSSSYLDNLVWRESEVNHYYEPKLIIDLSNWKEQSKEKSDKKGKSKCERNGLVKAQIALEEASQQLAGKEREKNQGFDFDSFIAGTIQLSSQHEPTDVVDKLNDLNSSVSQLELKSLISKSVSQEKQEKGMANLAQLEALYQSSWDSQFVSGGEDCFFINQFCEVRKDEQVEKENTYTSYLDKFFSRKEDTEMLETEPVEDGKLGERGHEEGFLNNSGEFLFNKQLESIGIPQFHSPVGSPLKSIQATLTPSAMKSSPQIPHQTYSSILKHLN
CSNK1A1, sequence (P48729 whole entry): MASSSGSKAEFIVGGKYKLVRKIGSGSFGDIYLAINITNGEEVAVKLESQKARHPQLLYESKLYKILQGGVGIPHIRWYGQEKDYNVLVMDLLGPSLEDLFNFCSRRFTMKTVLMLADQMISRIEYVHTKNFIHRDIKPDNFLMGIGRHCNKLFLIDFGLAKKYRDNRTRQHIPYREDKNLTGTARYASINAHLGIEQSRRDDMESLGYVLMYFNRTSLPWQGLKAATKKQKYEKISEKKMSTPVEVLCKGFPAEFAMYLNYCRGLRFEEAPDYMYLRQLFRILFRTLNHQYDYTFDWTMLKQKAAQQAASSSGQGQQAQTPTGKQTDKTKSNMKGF
ACVR1B, sequence (P36896 24-505): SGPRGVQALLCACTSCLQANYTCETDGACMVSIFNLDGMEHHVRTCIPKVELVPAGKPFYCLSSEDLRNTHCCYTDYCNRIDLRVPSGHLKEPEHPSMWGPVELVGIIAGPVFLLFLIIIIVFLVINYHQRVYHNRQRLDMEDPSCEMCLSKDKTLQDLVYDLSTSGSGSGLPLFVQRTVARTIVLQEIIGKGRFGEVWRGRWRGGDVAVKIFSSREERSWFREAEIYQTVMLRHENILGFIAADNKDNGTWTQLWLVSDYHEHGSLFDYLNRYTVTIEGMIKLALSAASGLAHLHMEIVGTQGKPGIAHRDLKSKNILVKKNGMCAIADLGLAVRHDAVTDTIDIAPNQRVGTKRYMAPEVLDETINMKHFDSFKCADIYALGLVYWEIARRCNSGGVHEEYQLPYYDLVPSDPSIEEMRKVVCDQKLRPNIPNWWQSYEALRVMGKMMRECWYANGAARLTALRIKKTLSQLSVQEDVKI
RET(M918T), sequence (P07949 29-1114 M918T): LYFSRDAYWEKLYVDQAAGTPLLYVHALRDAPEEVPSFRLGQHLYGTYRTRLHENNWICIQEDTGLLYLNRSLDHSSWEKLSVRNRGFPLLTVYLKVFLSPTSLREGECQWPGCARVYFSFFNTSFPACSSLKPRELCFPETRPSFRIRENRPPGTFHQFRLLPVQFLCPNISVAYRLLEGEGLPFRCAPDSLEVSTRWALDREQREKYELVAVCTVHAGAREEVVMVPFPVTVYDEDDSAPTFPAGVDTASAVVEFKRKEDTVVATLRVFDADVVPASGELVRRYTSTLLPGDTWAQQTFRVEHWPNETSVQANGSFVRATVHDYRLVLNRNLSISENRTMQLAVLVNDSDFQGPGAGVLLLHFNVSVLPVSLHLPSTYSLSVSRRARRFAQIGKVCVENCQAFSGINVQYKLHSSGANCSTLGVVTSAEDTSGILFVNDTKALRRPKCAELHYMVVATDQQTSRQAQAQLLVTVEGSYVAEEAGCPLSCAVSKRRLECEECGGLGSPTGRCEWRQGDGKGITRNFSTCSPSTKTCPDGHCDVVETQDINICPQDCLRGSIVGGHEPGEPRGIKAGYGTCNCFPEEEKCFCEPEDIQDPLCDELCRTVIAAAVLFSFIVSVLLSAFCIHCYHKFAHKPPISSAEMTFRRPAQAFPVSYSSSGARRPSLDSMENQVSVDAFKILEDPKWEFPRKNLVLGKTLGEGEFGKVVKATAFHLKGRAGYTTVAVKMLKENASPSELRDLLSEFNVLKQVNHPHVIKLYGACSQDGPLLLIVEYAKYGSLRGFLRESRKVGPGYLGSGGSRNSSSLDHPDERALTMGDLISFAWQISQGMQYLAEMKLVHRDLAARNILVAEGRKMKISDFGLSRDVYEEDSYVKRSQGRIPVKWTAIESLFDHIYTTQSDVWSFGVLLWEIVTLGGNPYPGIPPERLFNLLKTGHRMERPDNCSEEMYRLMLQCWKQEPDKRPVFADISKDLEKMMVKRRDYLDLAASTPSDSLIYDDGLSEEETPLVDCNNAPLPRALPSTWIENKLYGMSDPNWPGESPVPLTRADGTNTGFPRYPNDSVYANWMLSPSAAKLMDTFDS
GRK1, sequence (Q15835 whole entry): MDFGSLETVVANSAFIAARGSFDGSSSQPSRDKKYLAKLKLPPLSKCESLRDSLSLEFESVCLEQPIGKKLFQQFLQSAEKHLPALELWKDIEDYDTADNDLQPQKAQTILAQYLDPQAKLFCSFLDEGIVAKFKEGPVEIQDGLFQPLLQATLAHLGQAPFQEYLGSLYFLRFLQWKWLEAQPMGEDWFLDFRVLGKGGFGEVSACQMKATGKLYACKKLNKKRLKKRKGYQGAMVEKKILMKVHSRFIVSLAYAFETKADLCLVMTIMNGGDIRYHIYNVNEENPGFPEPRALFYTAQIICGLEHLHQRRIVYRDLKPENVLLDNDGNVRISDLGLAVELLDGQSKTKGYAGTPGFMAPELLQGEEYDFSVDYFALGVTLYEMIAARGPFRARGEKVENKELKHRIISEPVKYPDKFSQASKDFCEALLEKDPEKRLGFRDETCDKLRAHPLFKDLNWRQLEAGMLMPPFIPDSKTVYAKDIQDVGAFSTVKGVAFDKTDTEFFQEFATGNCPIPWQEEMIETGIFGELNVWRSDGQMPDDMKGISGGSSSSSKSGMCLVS
OSR1, sequence (O95747 whole entry): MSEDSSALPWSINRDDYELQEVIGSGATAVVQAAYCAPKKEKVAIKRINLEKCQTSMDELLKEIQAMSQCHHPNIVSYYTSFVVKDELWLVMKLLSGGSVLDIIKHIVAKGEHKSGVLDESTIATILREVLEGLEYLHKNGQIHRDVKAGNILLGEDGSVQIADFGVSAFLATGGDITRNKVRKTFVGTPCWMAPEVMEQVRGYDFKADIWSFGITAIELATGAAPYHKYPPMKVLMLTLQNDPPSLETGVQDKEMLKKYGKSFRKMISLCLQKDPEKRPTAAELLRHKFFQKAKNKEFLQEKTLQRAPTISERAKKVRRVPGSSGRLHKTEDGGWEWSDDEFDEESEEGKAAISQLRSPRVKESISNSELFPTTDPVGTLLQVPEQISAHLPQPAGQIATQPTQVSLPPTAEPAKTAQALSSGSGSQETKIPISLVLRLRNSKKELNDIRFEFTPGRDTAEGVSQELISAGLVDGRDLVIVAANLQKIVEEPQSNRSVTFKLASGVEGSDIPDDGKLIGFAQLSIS
CASK, sequence (O14936 whole entry): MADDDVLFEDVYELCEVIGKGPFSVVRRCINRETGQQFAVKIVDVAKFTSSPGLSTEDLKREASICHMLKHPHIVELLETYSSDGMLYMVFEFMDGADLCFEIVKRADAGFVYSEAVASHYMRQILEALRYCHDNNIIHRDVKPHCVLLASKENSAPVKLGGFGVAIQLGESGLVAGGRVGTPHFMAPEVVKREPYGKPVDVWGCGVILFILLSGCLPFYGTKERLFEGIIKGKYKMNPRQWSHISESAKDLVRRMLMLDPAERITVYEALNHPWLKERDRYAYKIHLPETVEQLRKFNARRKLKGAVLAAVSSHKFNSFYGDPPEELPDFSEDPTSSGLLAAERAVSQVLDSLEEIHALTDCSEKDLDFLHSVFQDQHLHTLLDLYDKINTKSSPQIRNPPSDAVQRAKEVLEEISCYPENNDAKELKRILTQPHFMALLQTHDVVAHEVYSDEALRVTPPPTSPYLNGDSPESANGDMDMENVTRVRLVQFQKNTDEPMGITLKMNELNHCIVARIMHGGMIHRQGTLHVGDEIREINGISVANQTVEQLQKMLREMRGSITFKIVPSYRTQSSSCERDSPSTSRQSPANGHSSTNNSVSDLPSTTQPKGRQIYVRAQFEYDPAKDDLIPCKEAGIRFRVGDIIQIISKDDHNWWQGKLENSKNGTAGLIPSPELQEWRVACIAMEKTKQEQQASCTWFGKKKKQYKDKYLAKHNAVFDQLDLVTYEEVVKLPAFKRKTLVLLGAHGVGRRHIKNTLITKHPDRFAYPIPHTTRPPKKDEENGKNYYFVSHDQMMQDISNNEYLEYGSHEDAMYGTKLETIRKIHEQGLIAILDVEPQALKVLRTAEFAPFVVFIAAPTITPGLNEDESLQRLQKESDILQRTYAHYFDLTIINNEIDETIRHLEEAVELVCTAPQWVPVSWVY
RSK2(Kin.Dom.2-C-terminal), sequence (P51812 398-740 limits assumed): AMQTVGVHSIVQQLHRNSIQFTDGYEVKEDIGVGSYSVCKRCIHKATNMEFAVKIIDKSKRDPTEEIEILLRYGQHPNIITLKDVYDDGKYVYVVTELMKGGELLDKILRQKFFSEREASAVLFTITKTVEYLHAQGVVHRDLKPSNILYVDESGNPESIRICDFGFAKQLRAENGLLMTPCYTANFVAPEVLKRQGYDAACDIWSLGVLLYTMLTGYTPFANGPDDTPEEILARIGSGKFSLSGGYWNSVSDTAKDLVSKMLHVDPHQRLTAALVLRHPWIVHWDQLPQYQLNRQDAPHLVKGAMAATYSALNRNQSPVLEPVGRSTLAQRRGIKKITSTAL

## CC(C)COC(=O)c1[nH]c2ccc(F)cc2c1-c1cn(CC2CCN(CCNS(=O)(=O)c3ccc(CC(C)C)cc3)CC2)nn1 [AB668, isobutyl 5-fluoro-3-(1-((1-(2-((4-isobutylphenyl)sulfonamido)ethyl)piperidin-4-yl)methyl)-1H-1,2,3-triazol-4-yl)-1H-indole-2-carboxylate]
PIP5K1C
  remaining activity at 2 µM: 87%
LYN
  remaining activity at 2 µM: 88%
CSNK1G1
  remaining activity at 2 µM: 90%
ERK1
  remaining activity at 2 µM: 75%
RET(M918T)
  remaining activity at 2 µM: 94%
ULK1
  remaining activity at 2 µM: 77%
[1]
  remaining activity at 2 µM: 81%
TGFBR1
  remaining activity at 2 µM: 84%
FLT3-autoinhibited
  remaining activity at 2 µM: 100%
ERK5
  remaining activity at 2 µM: 88%
YANK2
  remaining activity at 2 µM: 76%
SRPK1
  remaining activity at 2 µM: 88%
CSNK1A1
  remaining activity at 2 µM: 96%
FYN
  remaining activity at 2 µM: 64%
MAP4K3
  remaining activity at 2 µM: 82%
MEK4
  remaining activity at 2 µM: 89%
TTK
  remaining activity at 2 µM: 85%
TRKC
  remaining activity at 2 µM: 100%
MET(M1250T)
  remaining activity at 2 µM: 90%
PAK4
  remaining activity at 2 µM: 95%
IRAK1
  remaining activity at 2 µM: 98%
TAOK1
  remaining activity at 2 µM: 100%
ACVR1B
  remaining activity at 2 µM: 75%
KIT(V559D,V654A)
  remaining activity at 2 µM: 100%
[2]
  remaining activity at 2 µM: 95%
HIPK4
  remaining activity at 2 µM: 87%
CK2 in 786-O cells
  CK2 inhibition 8 h after inhibitor removal: persisted
ERK3
  remaining activity at 2 µM: 91%
AURKC
  remaining activity at 2 µM: 100%
[3]
  remaining activity at 2 µM: 94%
[4]
  remaining activity at 2 µM: 80%
MRCKB
  remaining activity at 2 µM: 90%
PIK3C2B
  remaining activity at 2 µM: 100%
CASK
  remaining activity at 2 µM: 97%
[5]
  remaining activity at 2 µM: 95%
OSR1
  remaining activity at 2 µM: 81%
CDC2L5
  remaining activity at 2 µM: 98%
GRK1
  remaining activity at 2 µM: 80%
FRK
  remaining activity at 2 µM: 70%
SRPK2
  remaining activity at 2 µM: 98%
ERN1
  remaining activity at 2 µM: 100%
[6]
  remaining activity at 2 µM: 73%
